# Reference: patent US12052991B2, “Substituted pyridinyloxybenzenes and salts thereof and use thereof as herbicidal agents” (Bayer Aktiengesellschaft, priority 2018, dated 2024)
# Assays:
# Assay type in all cases: in vivo
# Stellaria media (STEME) [1] = experiment: Herbicidal post-emergence action (Table B8); conditions: visual rating about 3 weeks after treatment, 100% = plants have died, 0% = like control plants
# Summary of the method: (§1)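 Application rates of 1280 or 320 g/ha were tested post-emergence on one-leaf-stage greenhouse plants in sandy loam, using WP or EC formulations with 0.5% additive at 600 L/ha. Activity was rated visually against untreated plants about 3 weeks later.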
# [2] = system: Abutilon theophrasti (ABUTH); experiment: Herbicidal pre-emergence action, test C (Table C5); conditions: visual scoring after about 3 weeks, 100% = plants have died, 0% = like control plants
# Summary of the method: (§2)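 First, weed seeds were sown in sandy loam and covered with soil. Next, aqueous WP/EC preparations plus 0.5% additive were applied to the surface at 600 L/ha (1280 or 320 g/ha). Finally, plants grew in a greenhouse ~3 weeks before visual % scoring against controls.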
# [3] = system: Digitaria sanguinalis (DIGSA); experiment: Herbicidal post-emergence action (Table B10); conditions: visual rating about 3 weeks after treatment, 100% = plants have died, 0% = like control plants
# Summary of the method: as §1
# Bassia scoparia (KCHSC) [4] = experiment: Herbicidal post-emergence action (Table B11); conditions: visual rating about 3 weeks after treatment, 100% = plants have died, 0% = like control plants
# Summary of the method: as §1
# [5] = system: Alopecurus myosuroides (ALOMY); experiment: Herbicidal pre-emergence action, test C (Table C9); conditions: visual scoring after about 3 weeks, 100% = plants have died, 0% = like control plants
# Excerpt: (§3) Seeds of mono- and dicotyledonous weed plants were placed in plastic pots in sandy loam soil (doubly sown with one species each of mono- or dicotyledonous weed plants per pot) and covered with soil. The compounds of the invention, formulated in the form of wettable powders (WP) or as emulsion concentrates (EC), were then applied onto the surface of the covering soil as aqueous suspension or emulsion with addition of 0.5% additive at a water application rate of 600 liters per hectare (converted). After the treatment, the pots were placed in a greenhouse and kept under good growth conditions for the test plants. After about 3 weeks, the effect of the preparations was scored visually in comparison with untreated controls as percentages. For example, 100% activity=the plants have died, 0% activity=like control plants. Tables C1 to C12 below show the effects of selected compounds of the general formula (I) according to Table 1 on various harmful plants and an application rate corresponding to 1280 or 320 g/ha, which were obtained by the experimental procedure mentioned above.
# Lolium rigidum (LOLRI) = experiment: Herbicidal pre-emergence action, test C (Table C2); conditions: dosage 1280 g/ha; visual scoring after about 3 weeks; 100% = plants have died, 0% = like control plants
# Excerpt: as §3
# Veronica persica (VERPE) [6] = experiment: Herbicidal post-emergence action (Table B12); conditions: visual rating about 3 weeks after treatment, 100% = plants have died, 0% = like control plants
# Summary of the method: as §1
# [7] = system: Echinochloa crus-galli (ECHCG); experiment: Herbicidal pre-emergence action, test C (Table C1); conditions: visual scoring after about 3 weeks, 100% = plants have died, 0% = like control plants
# Excerpt: as §3
# Stellaria media (STEME) [8] = experiment: Herbicidal pre-emergence action, test C (Table C8); conditions: visual scoring after about 3 weeks, 100% = plants have died, 0% = like control plants
# Summary of the method: as §2
# Setaria viridis (SETVI) [9] = experiment: Herbicidal pre-emergence action, test C (Table C4); conditions: visual scoring after about 3 weeks, 100% = plants have died, 0% = like control plants
# Summary of the method: as §2
# Setaria viridis (SETVI) [10] = experiment: Herbicidal post-emergence action (Table B4); conditions: rated visually after about 3 weeks, 100% = plants have died, 0% = like control plants
# Experimental: Seeds of mono- and dicotyledonous weed plants were placed in plastic pots in sandy loam soil (doubly sown with in each case one species of mono- or dicotyledonous weed plants per pot), covered with soil and cultivated in a greenhouse under controlled growth conditions. 2 to 3 weeks after sowing, the test plants were treated at the one-leaf stage. The compounds of the invention, formulated in the form of wettable powders (WP) or as emulsion concentrates (EC), were applied onto the green parts of the plants as aqueous suspension or emulsion with addition of 0.5% additive at a water application rate of 600 liters per hectare (converted). After the test plants had been kept in the greenhouse under optimum growth conditions for about 3 weeks, the activity of the preparations was rated visually in comparison to untreated controls. For example, 100% activity=the plants have died, 0% activity=like control plants. Tables B1 to B12 below show the effects of selected compounds of the general formula (I) according to Table 1 on various harmful plants and an application rate corresponding to 1280 or 320 g/ha, which were obtained by the experimental procedure mentioned above.
# [11] = system: Echinochloa crus-galli (ECHCG); experiment: Herbicidal post-emergence action (Table B1); conditions: 1280 g/ha; rated visually after about 3 weeks; 100% = plants have died, 0% = like control plants
# Summary of the method: as §1
# [12] = system: Abutilon theophrasti (ABUTH); experiment: Herbicidal post-emergence action (Table B5); conditions: rated visually after about 3 weeks, 100% = plants have died, 0% = like control plants
# Summary of the method: as §1
# [13] = system: Amaranthus retroflexus (AMARE); experiment: Herbicidal post-emergence action (Table B6); conditions: visual rating about 3 weeks after treatment, 100% = plants have died, 0% = like control plants
# Summary of the method: as §1
# Bassia scoparia (KCHSC) [14] = experiment: Herbicidal pre-emergence action, test C (Table C11); conditions: visual scoring vs untreated controls
# Excerpt: as §3
# [15] = system: Alopecurus myosuroides (ALOMY); experiment: Herbicidal post-emergence action (Table B9); conditions: rated visually after about 3 weeks, 100% = plants have died, 0% = like control plants
# Summary of the method: as §1
# [16] = system: harmful plants ABUTH, AMARE, ECHCG, LOLRI, MATIN, POAAN, SETVI, STEME, ALOMY, DIGSA, KCHSC and VERPE; experiment: Herbicidal post-emergence action, summary of Tables B1-B12; conditions: application rate of 1280 or 320 g of active ingredient per hectare; summary in words
# Summary of the method: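 Activity scored by eye roughly 3 weeks post-treatment against untreated plants, from 0% (no effect) to 100% (plants dead). Application rates were 1280 or 320 g/ha, as aqueous WP/EC spray plus 0.5% additive at 600 L/ha, onto one-leaf-stage weeds grown 2–3 weeks in sandy loam.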
# Veronica persica (VERPE) [17] = experiment: Herbicidal pre-emergence action, test C (Table C12); conditions: visual scoring vs untreated controls
# Summary of the method: as §2
# [18] = system: harmful plants ABUTH, AMARE, ECHCG, LOLRI, MATIN, POAAN, SETVI, STEME, ALOMY, DIGSA, KCHSC and VERPE; experiment: Herbicidal pre-emergence action (test C), summary of Tables C1-C12; conditions: application rate of 1280 or 320 g of active ingredient per hectare; summary in words
# Summary of the method: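 Visual % damage versus untreated plants (0% = like control, 100% = died) was scored after about 3 weeks in the greenhouse. Before emergence, seeds sown in sandy loam got a soil-surface spray of compound as WP or EC plus 0.5% additive, using 600 L/ha water at rates of 1280 or 320 g/ha.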
# Poa annua (POAAN) = experiment: Herbicidal post-emergence action (Table B3); conditions: rated visually after about 3 weeks, 100% = plants have died, 0% = like control plants
# Summary of the method: as §1
# [19] = system: Digitaria sanguinalis (DIGSA); experiment: Herbicidal pre-emergence action, test C (Table C10); conditions: visual scoring after about 3 weeks, 100% = plants have died, 0% = like control plants
# Summary of the method: as §2
# [20] = system: Amaranthus retroflexus (AMARE); experiment: Herbicidal pre-emergence action, test C (Table C6); conditions: visual scoring after about 3 weeks, 100% = plants have died, 0% = like control plants
# Summary of the method: as §2
smiles,measurement,setting,value
N#Cc1cccc(Oc2ccc(Cl)cn2)c1-c1cc(C(F)F)no1 [Example 1-55],Post-emergence action against Stellaria media (STEME),Stellaria media (STEME) [1]; dosage 320 g/ha,100%
same,Post-emergence action against Stellaria media (STEME),Stellaria media (STEME) [1]; dosage 1280 g/ha,100%
same,Pre-emergence action against Abutilon theophrasti (ABUTH),[2]; dosage 320 g/ha,100%
same,Pre-emergence action against Abutilon theophrasti (ABUTH),[2]; dosage 1280 g/ha,100%
same,Post-emergence action against Digitaria sanguinalis (DIGSA),[3]; dosage 320 g/ha,100%
same,Post-emergence action against Digitaria sanguinalis (DIGSA),[3]; dosage 1280 g/ha,100%
same,Post-emergence action against Bassia scoparia (KCHSC),Bassia scoparia (KCHSC) [4]; dosage 320 g/ha,100%
same,Post-emergence action against Bassia scoparia (KCHSC),Bassia scoparia (KCHSC) [4]; dosage 1280 g/ha,100%
same,Pre-emergence action against Alopecurus myosuroides (ALOMY),[5]; dosage 320 g/ha,100%
same,Pre-emergence action against Alopecurus myosuroides (ALOMY),[5]; dosage 1280 g/ha,100%
same,Pre-emergence action against Lolium rigidum (LOLRI),Lolium rigidum (LOLRI),100%
same,Post-emergence action against Veronica persica (VERPE),Veronica persica (VERPE) [6]; dosage 320 g/ha,100%
same,Post-emergence action against Veronica persica (VERPE),Veronica persica (VERPE) [6]; dosage 1280 g/ha,100%
same,Pre-emergence action against Echinochloa crus-galli (ECHCG),[7]; dosage 320 g/ha,100%
same,Pre-emergence action against Echinochloa crus-galli (ECHCG),[7]; dosage 1280 g/ha,100%
same,Pre-emergence action against Stellaria media (STEME),Stellaria media (STEME) [8]; dosage 320 g/ha,100%
same,Pre-emergence action against Stellaria media (STEME),Stellaria media (STEME) [8]; dosage 1280 g/ha,100%
same,Pre-emergence action against Setaria viridis (SETVI),Setaria viridis (SETVI) [9]; dosage 320 g/ha,100%
same,Pre-emergence action against Setaria viridis (SETVI),Setaria viridis (SETVI) [9]; dosage 1280 g/ha,100%
same,Post-emergence action against Setaria viridis (SETVI),Setaria viridis (SETVI) [10]; 320 g/ha,100%
same,Post-emergence action against Setaria viridis (SETVI),Setaria viridis (SETVI) [10]; 1280 g/ha,100%
same,Post-emergence action against Echinochloa crus-galli (ECHCG),[11],100%
same,Post-emergence action against Abutilon theophrasti (ABUTH),[12]; 320 g/ha,100%
same,Post-emergence action against Abutilon theophrasti (ABUTH),[12]; 1280 g/ha,100%
same,Post-emergence action against Amaranthus retroflexus (AMARE),[13]; dosage 320 g/ha,100%
same,Post-emergence action against Amaranthus retroflexus (AMARE),[13]; dosage 1280 g/ha,100%
same,Pre-emergence action against Bassia scoparia (KCHSC),Bassia scoparia (KCHSC) [14]; dosage 320 g/ha,100%
same,Pre-emergence action against Bassia scoparia (KCHSC),Bassia scoparia (KCHSC) [14]; dosage 1280 g/ha,100%
same,Post-emergence action against Alopecurus myosuroides (ALOMY),[15]; 320 g/ha,100%
same,Post-emergence action against Alopecurus myosuroides (ALOMY),[15]; 1280 g/ha,100%
same,herbicidal activity against the harmful plants of Tables B1-B12 in post-emergence treatment,[16],very good herbicidal activity
same,Pre-emergence action against Veronica persica (VERPE),Veronica persica (VERPE) [17]; dosage 320 g/ha,100%
same,Pre-emergence action against Veronica persica (VERPE),Veronica persica (VERPE) [17]; dosage 1280 g/ha,100%
same,herbicidal activity against the harmful plants of Tables C1-C12 in pre-emergence treatment,[18],very good herbicidal activity
same,Post-emergence action against Poa annua (POAAN),Poa annua (POAAN); 320 g/ha,100%
same,Post-emergence action against Poa annua (POAAN),Poa annua (POAAN); 1280 g/ha,100%
same,Pre-emergence action against Digitaria sanguinalis (DIGSA),[19]; dosage 320 g/ha,100%
same,Pre-emergence action against Digitaria sanguinalis (DIGSA),[19]; dosage 1280 g/ha,100%
same,Pre-emergence action against Amaranthus retroflexus (AMARE),[20]; dosage 320 g/ha,100%
same,Pre-emergence action against Amaranthus retroflexus (AMARE),[20]; dosage 1280 g/ha,100%
